# Data reported in patent US20090023801A1, “INHIBITORS OF BETA AMYLOID PRODUCTION” (Wyeth, priority 2007, published 2009).
# Like-named read-outs stand apart in the source and are kept apart here.
# Columns and labels:
# Type in all cases: cell-based
# Aβ42 = test: Aβ-lowering MSD electrochemiluminescent assay of conditioned media from CHO cells expressing human APP (Aβ42); conditions: MSD electrochemiluminescent assay, hAPP-REPNL751 CHO cells; read-out: Aβ42 EC50 for inhibition of Aβ42
# Experimental: (§1) The activity of compounds in lowering the generation of Aβ40 and Aβ42, the most abundant forms of beta amyloid, from APP (amyloid precursor protein) was measured in an electrochemiluminescent (ECL) assay of conditioned media from chinese hamster ovary (CHO) cells stably expressing the human amyloid precursor protein (APP) reporter construct, hAPP-REPNL751 (Sughir, R. et al.; J. Biolog. Chem (1992) 267: 25602-25608). Aβ peptides were secreted at high levels into cell culture media by cells carrying the human APP transgene; compounds were tested for their capacity to modulate this production. The Aβ peptide in the conditioned medium was quantitated by a sandwich immunoassay with the MSD ECL detection system. Cell metabolism was measured using a 3-(4,5-dimethylthiazol-2-yl)-5-(3-carboxymethoxypheny)-2-(4-sulfophenyl)-2H-tetrazolium, inner salt (MTS) salt kit (which measures the mitochondrial activity of cells by the bioreduction of Owen's reagent). This assay consists of the following protocol:
# (§2) 1. hAPP-REPNL751CHO cells were seeded into 96 well plates and incubated until about 60-70% confluence.
# (§3) 2. Medium was removed, cells were washed, and fresh serum-free medium (Ultraculture) was put on cells.
# (§4) 3. Compounds were diluted and then added to the cell medium.
# (§5) 4. Cells were incubated, with compounds, for indicated times.
# (§6) 5. Streptavidin coated Meso Scale Discover (MSD) plates (MSD standard MULTI-ARRAY® 96 plate, cat.# P11SA-1) were washed […] with TTBS (Tris-buffered saline, the TWEEN® 20 reagent).
# (§7) 6. 20 μL conditioned medium were removed from the cells and added to the TTBS prewashed MSD plates.
# (§8) 7. Standard curve dilutions of synthetic Aβ40 and Aβ42 were prepared and added to the MSD plates.
# (§9) 8. A reagent mix was prepared in 1% MSD Blocker A (appropriate concentration of biotinylated 6E10 antibody, detection antibodies to Aβ40, Aβ42, and MSD ruthinylated tag antibody).
# (§10) 9. 20 μL reagent mix was distributed to sample plate.
# (§11) 10. Plates were incubated with shaking overnight at 4° C.
# (§12) 11. Plates were washed 3× with TTBS.
# (§13) 12. 150 μL read buffer was added per well (MSD® Read Buffer T, cat#R92TC-2, made 1× with distilled water).
# (§14) 13. Plates were read in a MSD® plate reader within 2 hours.
# (§15) Assays were accepted or rejected based upon specific performance criteria, including regression coefficient of standard curve, adequate signal to noise ratio, sample signals lying within the range of the standard curve, etc.: the specific parameters were established for each tissue type prior to performing an assay, and were included in the full analytical procedure.
# (§16) Plate data from both assays (MTS and MSD® ELISA) were transferred into a Microsoft EXCEL® spreadsheet to determine the toxicity, and inhibition caused by the compounds. Standard curves of Aβ were generated using LSW™ toolbar Hill slope model 42, with 1/y weighting (general sigmoidal curve with Hill slope, a to d; y=(a−d)/(1+(x/c)̂b)+d). Inhibition data were expressed as a percent of the average of the Aβ values in the vehicle treated wells (all values are background subtracted), using LSW™ toolbar Hill Slope model 68 (ligand-receptor binding/sigmoidal, with Hill slope and Bmax to 0; y=Bmax*(1−(x̂n/(K̂n+x̂n))), after raw values were translated/transformed into absolute Aβ values utilizing the standard curve generated as described above (e.g. back calculate absolute Aβ values from the raw values utilizing standard curve). Onboard controls to verify assay performance were checked to assure that amyloid is within linear detection range of the assay, that cells were expressing correctly, and that the MSD itself was performing according to quality control (QC) standards.
# (§17) % Inhibition>50% may be considered a positive response or an interesting result in this assay; EC50 determination were determined.
# (§18) The beta amyloid inhibitory activity of compounds of formula (I) was determined using the MSD ECL assay. Inhibition of Notch processing was measured using the stable transfection reporter assay See, Table 1 below.
# Notch = test: Stable transfection Notch reporter assay (HES1-SEAP, P8H6 CHO-K1 cells); conditions: stable transfection Notch reporter assay, 48 hours, read-out: Notch EC50 for inhibition of Notch
# Text: A concern with compounds that lower beta amyloid synthesis by targeting the γ-secretase enzyme is that this enzyme also is involved in the cleavage of other substrates besides APP especially the Notch substrate. […] Thus, a selectivity of APP cleavage over Notch cleavage is desired in order to avoid G.I. side effects. The activity of compounds in cleaving Notch can be measured in a whole cell functional Notch assay. This is an assay to determine the effects of compounds on the S3 (γ-secretase like) processing of Notch. […] SEAP transactivation is then detected by luminescent assay. The assay consists of the following protocol:
# • (i) Materials: The P8H6 inducible stable cell line was derived from T-REX™ CHO-K1, stably expressing Tet repressor, Notch (pZX1) and HES1-SEAP (pZX2) reporter constructs. A Wallac 1450 Victor™ Luminescence Counter was used to measure luminescent signal. All other materials and reagents were of highest quality available and were all from commercial sources.
# (ii) Construct Description: • pZX1: Mouse Notch1 with deleted extracellular domain cloned at Hind III/Xho I sites of pcDNA5/TO vector: Ampicillin Resistance for bacteria, hygromycin resistance for cells. • pZX2: Mouse HES1 promoter together with reporter gene SEAP cloned at Not I/Apa I sites of pcDNA3.1 with deletion of CMV promoter.
# (iii) Procedure: • 1. P8H6 cells were grown in Ham's F12 complete growth media containing 10% FBS (reduced tetracycline), 2 mM of L-glutamine, 1 mg/mL of hygromycin, 1 mg/mL of the GENETICIN® antibiotic, 10 μg/mL of Blasticidin and 1% Penicillin-Streptomycin were supplemented with doxycline with final induction concentration of 0.2 μg/mL. The cells were seeded in 96-well tissue culture plate at 8000/well. • 2. Test compounds in 0.2% DMSO/25 mM HEPES buffer were diluted at final working concentration of 20 μM, 6.7 μM, 2.2 μM, 741 nM, 247 nM, 82 nM, 27 nM, 9 nM and 3 nM. Diluted compounds then were added to P8H6 cells in 96-well tissue culture plates. For vehicle samples, the same volume of 0.2% DMSO/25 mM HEPES buffer was added. • 3. Cells were incubated at 37° C., 5% CO2 for 48 hours. • 4. SEAP levels in the conditioned media were assessed using the Clontech GREATESCAPE™ SEAP Chemiluminescence detection kit according to the manufacturer's instruction. Briefly, 15 μL of conditioned media were mixed with 45 μL of the dilution buffer and incubated at 65° C. for 45 minutes. After cooling, assay buffer was added and the sample was incubated with the CSPD® substrate. • 5. Luminescence was measured in a Wallac 1450 VICTOR™ luminescence counter.
# EC50 was the compound concentration that was estimated to provide a 50% reduction of maximum response in Notch induced SEAP levels. An EC50 from a given assay may only be used for averaging if it has met the following criteria: • 1. There is a lower dose in the assay which gives a % Notch Activity>60% (bracketing lower dose). • 2. There is a higher dose in the assay which gives a % Notch Activity<30% (bracketing higher dose), and the maximum inhibition is reached (e.g., a given compound might achieve 80% inhibition (% Notch activity is about 20%) over several doses, and therefore 20% would be considered the maximum inhibition.
# Data were analyzed in Microsoft EXCEL® format. EC50 was calculated by LSW using sigmoidal inhibition from B0 to nsb model (model 59). Each assay plate contained a dose response curve for the reference compound 5-chloro-N-[(1S,2R)-2-ethyl-4,4,4-trifluoro-1-(hydroxymethyl)butyl]thiophene-2-sulfonamide. This compound is discussed in International Patent Publication No. WO 2004/092155. The following data is not shown in that publication.
# as §18
# Aβ40 = test: Aβ-lowering MSD electrochemiluminescent assay of conditioned media from CHO cells expressing human APP (Aβ40); conditions: MSD electrochemiluminescent assay, hAPP-REPNL751 CHO cells; read-out: Aβ40 EC50 for inhibition of Aβ40
# Experimental: as §1, §2, §3, §4, §5, §6, §7, §8, §9, §10, §11, §12, §13, §14, §15, §16, §17, §18
SMILES,EC50 (Aβ42) [nM],EC50 (Notch) [nM],EC50 (Aβ40) [nM],EC50 (Notch; CHO-K1) [nM]
"O=S(=O)(N[C@@H](CO)[C@@H](c1cc(F)cc(F)c1)C(F)(F)F)c1ccc(Cl)s1.O=S(=O)(N[C@H](CO)[C@H](c1cc(F)cc(F)c1)C(F)(F)F)c1ccc(Cl)s1 (relative stereo) [Example 7, 5-Chloro-N-[(1S*,2S*)-2-(3,5-difluorophenyl)-3,3,3-trifluoro-1-(hydroxymethyl)propyl]thiophene-2-sulfonamide and 5-chloro-N-[(1R*,2R*)-2-(3,5-difluorophenyl)-3,3,3-trifluoro-1-(hydroxymethyl)propyl]thiophene-2-sulfonamide]",8750,> 20000,7300,–
"O=S(=O)(N[C@H](CO)[C@@H](c1cc(F)cc(F)c1)C(F)(F)F)c1ccc(Cl)s1 (relative stereo) [Example 8, 5-Chloro-N-[(1S*,2R*)-2-(3,5-difluorophenyl)-3,3,3-trifluoro-1-(hydroxymethyl)propyl]thiophene-2-sulfonamide]",80,–,83,2780
"O=S(=O)(N[C@H](CO)[C@@H](c1ccc(F)cc1)C(F)(F)F)c1ccc(Cl)s1 (relative stereo) [Example 9, 5-Chloro-N-[(1S*,2R*)-3,3,3-trifluoro-2-(4-fluorophenyl)-1-(hydroxymethyl)propyl]thiophene-2-sulfonamide]",178,–,187,> 20000
"O=S(=O)(N[C@H](CO)[C@H](c1ccc(F)cc1)C(F)(F)F)c1ccc(Cl)s1 (relative stereo) [Example 10, 5-Chloro-N-[(1S*,2S*)-3,3,3-trifluoro-2-(4-fluorophenyl)-1-(hydroxymethyl)propyl]thiophene-2-sulfonamide]",1570,–,1880,> 20000
"O=S(=O)(N[C@H](CO)[C@H](c1cccc(F)c1)C(F)(F)F)c1ccc(Cl)s1 (relative stereo) [Example 11, 5-Chloro-N-[(1S*,2S*)-3,3,3-trifluoro-2-(3-fluorophenyl)-1-(hydroxymethyl)propyl]thiophene-2-sulfonamide]",3380,–,4060,> 20000
"O=S(=O)(N[C@H](CO)[C@@H](c1cccc(F)c1)C(F)(F)F)c1ccc(Cl)s1 (relative stereo) [Example 12, 5-Chloro-N-[(1S*,2R*)-3,3,3-trifluoro-2-(3-fluorophenyl)-1-(hydroxymethyl)propyl]thiophene-2-sulfonamide]",98,–,98,1740
"O=S(=O)(N[C@H](CO)[C@@H](c1ccc(Cl)cc1)C(F)(F)F)c1ccc(Cl)s1 (relative stereo) [Example 13, 5-Chloro-N-[(1S*,2R*)-2-(4-chlorophenyl)-3,3,3-trifluoro-1-(hydroxymethyl)propyl]thiophene-2-sulfonamide]",396,–,316,7600
"O=S(=O)(N[C@H](CO)[C@H](c1ccc(Cl)cc1)C(F)(F)F)c1ccc(Cl)s1 (relative stereo) [Example 14, 5-Chloro-N-[(1S*,2S*)-2-(4-chlorophenyl)-3,3,3-trifluoro-1-(hydroxymethyl)propyl]thiophene-2-sulfonamide]",2280,–,2360,> 20000
"O=S(=O)(N[C@@H](CO)[C@@H](c1ccccc1)C(F)(F)F)c1ccc(Cl)s1 (stereo in doubt) [Example 2, 5-Chloro-N-[(1R* ,2R*)-3,3,3-trifluoro-1-(hydroxymethyl)-2-phenylpropyl]thiophene-2-sulfonamide]",> 15000,–,> 15000,–
"O=S(=O)(N[C@@H](CO)[C@H](c1ccccc1)C(F)(F)F)c1ccc(Cl)s1 [Example 3, 5-Chloro-N-[(1R,2S)-3,3,3-trifluoro-1-(hydroxymethyl)-2-phenylpropyl]thiophene-2-sulfonamide]",> 15000,–,> 15000,–
